PubChem BioAssay (NCI)
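Grown in 96-well plates, cells were treated for 48 hours with each compound at five concentrations. Insufficient inhibition: endpoint recorded as highest concentration tested. TGI: total growth inhibition.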

What was measured:
Experiment in all cases: NCI-60 cell line screen, 48 h
OVCAR-8 ovarian = test system: OVCAR-8 ovarian
NCI/ADR-RES ovarian = test system: NCI/ADR-RES ovarian
K-562 leukemia = test system: K-562 leukemia
SF-295 CNS = test system: SF-295 CNS
UACC-62 melanoma = test system: UACC-62 melanoma
ACHN renal = test system: ACHN renal
LOX IMVI melanoma = test system: LOX IMVI melanoma
CCRF-CEM leukemia = test system: CCRF-CEM leukemia
M14 melanoma = test system: M14 melanoma
KM12 colon = test system: KM12 colon
UACC-257 melanoma = test system: UACC-257 melanoma
RPMI-8226 leukemia = test system: RPMI-8226 leukemia
CAKI-1 renal = test system: CAKI-1 renal
RXF 393 renal = test system: RXF 393 renal
BT-549 breast = test system: BT-549 breast
SK-OV-3 ovarian = test system: SK-OV-3 ovarian
HCC-2998 colon = test system: HCC-2998 colon
786-0 renal = test system: 786-0 renal
HOP-62 NSCLC = test system: HOP-62 NSCLC
SW-620 colon = test system: SW-620 colon
MDA-MB-231 breast = test system: MDA-MB-231 breast
TK-10 renal = test system: TK-10 renal
NCI-H23 lung = test system: NCI-H23 lung
SNB-75 CNS = test system: SNB-75 CNS
OVCAR-3 ovarian = test system: OVCAR-3 ovarian
NCI-H226 lung = test system: NCI-H226 lung
IGROV1 ovarian = test system: IGROV1 ovarian
HCT-15 colon = test system: HCT-15 colon
DU-145 prostate = test system: DU-145 prostate
MOLT-4 leukemia = test system: MOLT-4 leukemia
T-47D breast = test system: T-47D breast
PC-3 prostate = test system: PC-3 prostate
MDA-N = test system: MDA-N
UO-31 renal = test system: UO-31 renal
NCI-H460 lung = test system: NCI-H460 lung
OVCAR-4 ovarian = test system: OVCAR-4 ovarian
SK-MEL-28 melanoma = test system: SK-MEL-28 melanoma
SNB-19 CNS = test system: SNB-19 CNS
SF-268 CNS = test system: SF-268 CNS
HOP-92 NSCLC = test system: HOP-92 NSCLC
SK-MEL-5 melanoma = test system: SK-MEL-5 melanoma
HS 578T breast = test system: HS 578T breast
A549 NSCLC = test system: A549 NSCLC
SN12C renal = test system: SN12C renal
MDA-MB-435 = test system: MDA-MB-435
U251 CNS = test system: U251 CNS
NCI-H522 lung = test system: NCI-H522 lung
HCT-116 colon = test system: HCT-116 colon
OVCAR-5 ovarian = test system: OVCAR-5 ovarian
A498 renal = test system: A498 renal
COLO 205 colon = test system: COLO 205 colon
MALME-3M melanoma = test system: MALME-3M melanoma
HT29 colon = test system: HT29 colon
SK-MEL-2 melanoma = test system: SK-MEL-2 melanoma
MCF7 breast = test system: MCF7 breast
EKVX NSCLC = test system: EKVX NSCLC
SR leukemia = test system: SR leukemia
HL-60(TB) leukemia = test system: HL-60(TB) leukemia
SF-539 CNS = test system: SF-539 CNS

Compound: CNc1nc(SC)nc2c1c(N)nn2C
- TGI (OVCAR-8 ovarian): > 100 µM
- TGI (NCI/ADR-RES ovarian): > 100 µM
- TGI (K-562 leukemia): > 100 µM
- TGI (SF-295 CNS): > 100 µM
- TGI (UACC-62 melanoma): > 100 µM
- TGI (ACHN renal): > 100 µM
- TGI (LOX IMVI melanoma): > 100 µM
- TGI (CCRF-CEM leukemia): > 100 µM
- TGI (M14 melanoma): > 100 µM
- TGI (KM12 colon): > 100 µM
- TGI (UACC-257 melanoma): > 100 µM
- TGI (RPMI-8226 leukemia): > 100 µM
- TGI (CAKI-1 renal): > 100 µM
- TGI (RXF 393 renal): > 100 µM
- TGI (BT-549 breast): > 100 µM
- TGI (SK-OV-3 ovarian): > 100 µM
- TGI (HCC-2998 colon): > 100 µM
- TGI (786-0 renal): > 100 µM
- TGI (HOP-62 NSCLC): > 100 µM
- TGI (SW-620 colon): > 100 µM
- TGI (MDA-MB-231 breast): > 100 µM
- TGI (TK-10 renal): > 100 µM
- TGI (NCI-H23 lung): > 100 µM
- TGI (SNB-75 CNS): > 100 µM
- TGI (OVCAR-3 ovarian): > 100 µM
- TGI (NCI-H226 lung): > 100 µM
- TGI (IGROV1 ovarian): > 100 µM
- TGI (HCT-15 colon): > 100 µM
- TGI (DU-145 prostate): > 100 µM
- TGI (MOLT-4 leukemia): > 100 µM
- TGI (T-47D breast): > 100 µM
- TGI (PC-3 prostate): > 100 µM
- TGI (MDA-N): > 100 µM
- TGI (UO-31 renal): > 100 µM
- TGI (NCI-H460 lung): > 100 µM
- TGI (OVCAR-4 ovarian): > 100 µM
- TGI (SK-MEL-28 melanoma): > 100 µM
- TGI (SNB-19 CNS): > 100 µM
- TGI (SF-268 CNS): > 100 µM
- TGI (HOP-92 NSCLC): > 100 µM
- TGI (SK-MEL-5 melanoma): > 100 µM
- TGI (HS 578T breast): > 100 µM
- TGI (A549 NSCLC): > 100 µM
- TGI (SN12C renal): > 100 µM
- TGI (MDA-MB-435): > 100 µM
- TGI (U251 CNS): > 100 µM
- TGI (NCI-H522 lung): > 100 µM
- TGI (HCT-116 colon): > 100 µM
- TGI (OVCAR-5 ovarian): > 100 µM
- TGI (A498 renal): > 100 µM
- TGI (COLO 205 colon): > 100 µM
- TGI (MALME-3M melanoma): > 100 µM
- TGI (HT29 colon): > 100 µM
- TGI (SK-MEL-2 melanoma): > 100 µM

Compound: CC(C)(C)OC(=O)N1CCCC1=O
- TGI (OVCAR-8 ovarian): > 10 µM
- TGI (K-562 leukemia): > 10 µM
- TGI (SF-295 CNS): > 10 µM
- TGI (UACC-62 melanoma): > 10 µM
- TGI (ACHN renal): > 10 µM
- TGI (LOX IMVI melanoma): > 10 µM
- TGI (CCRF-CEM leukemia): > 10 µM
- TGI (M14 melanoma): > 10 µM
- TGI (KM12 colon): > 10 µM
- TGI (UACC-257 melanoma): > 10 µM
- TGI (RPMI-8226 leukemia): > 10 µM
- TGI (RXF 393 renal): > 10 µM
- TGI (BT-549 breast): > 10 µM
- TGI (SK-OV-3 ovarian): > 10 µM
- TGI (HCC-2998 colon): > 10 µM
- TGI (786-0 renal): > 10 µM
- TGI (HOP-62 NSCLC): > 10 µM
- TGI (MCF7 breast): > 10 µM
- TGI (EKVX NSCLC): > 10 µM
- TGI (SW-620 colon): > 10 µM
- TGI (SR leukemia): > 10 µM
- TGI (MDA-MB-231 breast): > 10 µM
- TGI (TK-10 renal): > 10 µM
- TGI (NCI-H23 lung): > 10 µM
- TGI (SNB-75 CNS): > 10 µM
- TGI (OVCAR-3 ovarian): > 10 µM
- TGI (NCI-H226 lung): > 10 µM
- TGI (IGROV1 ovarian): > 10 µM
- TGI (HCT-15 colon): > 10 µM
- TGI (DU-145 prostate): > 10 µM
- TGI (MOLT-4 leukemia): > 10 µM
- TGI (T-47D breast): > 10 µM
- TGI (PC-3 prostate): > 10 µM
- TGI (MDA-N): > 10 µM
- TGI (UO-31 renal): > 10 µM
- TGI (HL-60(TB) leukemia): > 10 µM
- TGI (NCI-H460 lung): > 10 µM
- TGI (SK-MEL-28 melanoma): > 10 µM
- TGI (SNB-19 CNS): > 10 µM
- TGI (SF-268 CNS): > 10 µM
- TGI (HOP-92 NSCLC): > 10 µM
- TGI (SK-MEL-5 melanoma): > 10 µM
- TGI (HS 578T breast): > 10 µM
- TGI (A549 NSCLC): > 10 µM
- TGI (SN12C renal): > 10 µM
- TGI (MDA-MB-435): > 10 µM
- TGI (U251 CNS): > 10 µM
- TGI (HCT-116 colon): > 10 µM
- TGI (OVCAR-5 ovarian): > 10 µM
- TGI (SF-539 CNS): > 10 µM
- TGI (A498 renal): > 10 µM
- TGI (MALME-3M melanoma): > 10 µM
- TGI (HT29 colon): > 10 µM
- TGI (SK-MEL-2 melanoma): > 10 µM

Compound: CN(C(=O)c1ccccc1)C1CCCC(=O)CC1 (centres undefined)
- TGI (OVCAR-8 ovarian): > 100 µM
- TGI (K-562 leukemia): > 100 µM
- TGI (SF-295 CNS): > 100 µM
- TGI (UACC-62 melanoma): > 100 µM
- TGI (ACHN renal): > 100 µM
- TGI (LOX IMVI melanoma): > 100 µM
- TGI (CCRF-CEM leukemia): > 100 µM
- TGI (M14 melanoma): > 100 µM
- TGI (KM12 colon): > 100 µM
- TGI (UACC-257 melanoma): > 100 µM
- TGI (RPMI-8226 leukemia): > 100 µM
- TGI (CAKI-1 renal): > 100 µM
- TGI (RXF 393 renal): > 100 µM
- TGI (BT-549 breast): > 100 µM
- TGI (SK-OV-3 ovarian): > 100 µM
- TGI (HCC-2998 colon): > 100 µM
- TGI (786-0 renal): > 100 µM
- TGI (HOP-62 NSCLC): > 100 µM
- TGI (MCF7 breast): > 100 µM
- TGI (EKVX NSCLC): > 100 µM
- TGI (SW-620 colon): > 100 µM
- TGI (SR leukemia): > 100 µM
- TGI (MDA-MB-231 breast): > 100 µM
- TGI (TK-10 renal): > 100 µM
- TGI (NCI-H23 lung): > 100 µM
- TGI (SNB-75 CNS): > 100 µM
- TGI (OVCAR-3 ovarian): > 100 µM
- TGI (NCI-H226 lung): > 100 µM
- TGI (IGROV1 ovarian): > 100 µM
- TGI (HCT-15 colon): > 100 µM
- TGI (DU-145 prostate): > 100 µM
- TGI (T-47D breast): > 100 µM
- TGI (PC-3 prostate): > 100 µM
- TGI (MDA-N): > 100 µM
- TGI (UO-31 renal): > 100 µM
- TGI (HL-60(TB) leukemia): > 100 µM
- TGI (NCI-H460 lung): > 100 µM
- TGI (OVCAR-4 ovarian): > 100 µM
- TGI (SK-MEL-28 melanoma): > 100 µM
- TGI (SNB-19 CNS): > 100 µM
- TGI (SF-268 CNS): > 100 µM
- TGI (HOP-92 NSCLC): > 100 µM
- TGI (HS 578T breast): > 100 µM
- TGI (A549 NSCLC): > 100 µM
- TGI (SN12C renal): > 100 µM
- TGI (MDA-MB-435): > 100 µM
- TGI (U251 CNS): > 100 µM
- TGI (NCI-H522 lung): > 100 µM
- TGI (HCT-116 colon): > 100 µM
- TGI (OVCAR-5 ovarian): > 100 µM
- TGI (SF-539 CNS): > 100 µM
- TGI (A498 renal): > 100 µM
- TGI (COLO 205 colon): > 100 µM
- TGI (MALME-3M melanoma): > 100 µM
- TGI (HT29 colon): > 100 µM
- TGI (SK-MEL-2 melanoma): > 100 µM
